How the values were obtained:
Rectum Adenocarcinoma = test: Activity against heterotransplanted human rectum adenocarcinoma; type: in vivo; conditions: day 25
Experimental: (§1) The same testing procedure as in the tests with B16 melanoma and colon 38 carcinoma was employed. The test compounds were applied in equivalent and equitoxic doses, subdivided into five injections. The first injection was administered on day 8 (mammary carcinoma), day 10 (adenocarcinoma of rectum and lung) and day 26 (small cell lung carcinoma) of the tumor transplantation. The T/C values were determined 3 days after the last substance injection, i.e., on day 23 (mammary carcinoma), day 25 (adenocarcinoma of rectum and lung) and day 41 (small cell lung carcinoma).

Ehrlich ascites tumor = test: Activity against Ehrlich Ascites Tumor; type: in vivo, Female CF1 mice; conditions: single i.p. dose, 24 h after tumor inoculation
Experimental: Female CF1 mice are each given about 6×10^6 Ehrlich ascites tumor cells by means of intraperitoneal injection and, 24 hours later, a single intraperitoneal dose of substance dose range of 20 to 500 mg/kg) in physiological saline solution (0.4 ml). In each case 5 to 10 animals are tested per dose. If appropriate, the preparation can be buffered to a pH of 4 to 7, for example with sodium bicarbonate or tris-(hydroxymethyl)-aminomethane, in order to avoid local irritation at the injection site. A group of untreated control animals which were injected intraperitoneally with 0.4 ml of physiological saline solution without administration of the substance is also run for each test series.
The tumor development in the individual dose ranges is evaluated by means of the weight course and survival time. The dose-dependent number of tumor deaths, toxicity deaths and surviving, and the associated percentage increase in the average survival time are determined for each substance.

B16 Melanoma = test: Activity against B16 Melanoma; type: in vivo, female B6 D2 F1 mice; conditions: day 10
Experimental: (§2) The B16 melanoma and colon 38 carcinoma used were obtained from the NCI Liasion Office, Institut Jules Bordet, Brussels, Belgium and, for propagation, were kept as solid, subcutaneously growing tumor lines on male C57BL/6J mice. For testing, the tumors were transplanted to female B6 D2 F1 mice. All animals were kept under standard conditions (22°-23° C., tap water and altromin food ad libitum, 12-h light-dark rhythm).
(§3) For tumor transplantation on day 0 of the testing experiments, solid tumors were removed from donor mice, minced with scissors and reduced to small particles. After suspension in twofold volumes of Hank's balanced salt solution, volumes of 0.3 ml were inoculated subcutaneously into the axillary region, resulting in the growth of solitary solid tumors.
(§4) The test compounds were administered either as a single injection on day 1 or as three injections on days 1, 3 and 5, or as five injections on days 1, 3, 5, 7 and 9. The different doses applied and the animal distribution are recorded in table 4. The substances, dissolved or suspended in a DMSO-saline mixture (1/9=v/v), were always injected intraperitoneally. The concentrations were selected in such a manner that each mouse received a total volume of 0.4 to 0.5 ml. Control animals only obtained one, three or five injections of the DMSO-saline mixture (0.5 ml/animal) without drug addition.
(§5) The number of deaths was recorded daily. Deaths occuring within 7 days (single injection), 11 days (three injections) or 15 days (five injections) after tumor transplantation were defined as deaths due to substance toxicity.
(§6) In the case of B16 melonoma, the tumors were removed and weighed on day 10 for the single and three injections or on day 15 for the five injections. Colon 38 carcinomas were always evaluated on day 15 of the experiment.

solid Sarcoma 180 = test: Activity against solid Sarcoma 180; conditions: for T/C / Tumor Weight: day 9; for Tumor Weight: mean ± SD
Experimental: The sarcoma 180 used in the present study was obtained from the Deutsche Krebsforschungszentrum (Heidelberg, Germany). It was propagated as an intraperitoneally growing tumor line on female NMRI mice which were kept under standard conditions (altromin food and tap water ad libitum, 12-h dark-light rhythm).
Antitumor testing was performed against sarcoma 180 in fluid ascitic as well as in solid, subcutaneously growing form. For testing against ascitic or solid sarcoma 180, the ascitic tumor of donor mice was harvested, diluted 1:3 (v:v) with saline and injected either into the peritoneal cavity or, subcutaneously, into the axillary region of female NMRI mice. Each animal obtained about 10^7 tumor cells. The day of tumor transplantation was defined as day 0 of the experiment.
Before administration of the test compounds, samples corresponding to the applied doses were dissolved in DMSO, filled up with ninefold volumes of saline and applied to mice in volumes of 0.02 ml per g of body weight. The different doses were either given as a single injection on day 1 or as triple injections on days 1, 3 and 5. […] The untreated, tumor-bearing control animals only received injections of the DMSO/saline mixture (0.02 ml/g). Every day occuring deaths were noted. Deaths within 8 days after tumor transplantation were defined as toxic deaths due to substance toxicity. In the case of ascitic sarcoma 180, the parameters evaluated were the values of mean survival time (MST) and of increase in life span (ILS); the latter was calculated by relating the mean survival time of a treated group to that of the corresponding control group expressed as a percentage and by subtracting 100%. The key date for the evaluation of the experiment and for determining the number of surviving (cured) animals was day 80. In the case of solid sarcoma 180, the tumors were removed on day 9 after transplantation and weighted to an accuracy of ±1 mg. From tumor weights of treated and control animals, the T/C ratios were calculated as follows: [formula]

Lung Adenocarcinoma = test: Activity against heterotransplanted human lung adenocarcinoma; type: in vivo; conditions: day 25
Experimental: as §1

Mammary Carcinoma = test: Activity against heterotransplanted human mammary carcinoma; type: in vivo, human tumor xenograft tumor xenograft tumor xenograft; conditions: day 23
Experimental: as §1

Colon 38 Carcinoma = test: Activity against Colon 38 Carcinoma; type: in vivo, female B6 D2 F1 mice; conditions: day 15
Experimental: as §2, §3, §4, §5, §6

ascitic Sarcoma 180 = test: Activity against ascitic Sarcoma 180; type: in vivo, female NMRI mice; conditions: for Survivors/Animals Treated: day 80; for MST (mean survival time): mean (range)
Text: Each animal obtained about 10^7 tumor cells.
Every day occuring deaths were noted.

[1] = tested on: Lung Small Cell Carcinoma; test: Activity against heterotransplanted human small cell lung carcinoma; type: in vivo; conditions: day 41
Experimental: as §1

O=C(O)C=CC(=O)[O][Ti+2][O]C(=O)C=CC(=O)O.c1cc[cH-]c1.c1cc[cH-]c1 [Compound 3, Bis(hydrogenmaleinato)bis(.eta.^5 -cyclopentadienyl)titanium(IV)]
T/C (based on mean relative volume of tumor) (Rectum Adenocarcinoma; 5 × 30 mg/kg): 89% | Optimal Treating Rate (Ehrlich ascites tumor): 100% | Therapeutic Index (LD50/ED90) (Ehrlich ascites tumor): 3,8 | T/C (B16 Melanoma; 1 × 120 mg/kg i.p.): 89% | T/C (B16 Melanoma; 3 × 100 mg/kg i.p.): 50% | T/C (solid Sarcoma 180; 1 × 80 mg/kg): 95% | Tumor Weight (solid Sarcoma 180; 1 × 80 mg/kg): 1,13 ± 0,18 g | T/C (solid Sarcoma 180; 1 × 120 mg/kg): 73% | Tumor Weight (solid Sarcoma 180; 1 × 120 mg/kg): 0,87 ± 0,41 g | T/C (solid Sarcoma 180; 3 × 60 mg/kg): 76% | Tumor Weight (solid Sarcoma 180; 3 × 60 mg/kg): 0,91 ± 0,25 g | T/C (solid Sarcoma 180; 3 × 100 mg/kg): 53% | Tumor Weight (solid Sarcoma 180; 3 × 100 mg/kg): 0,63 ± 0,14 g | T/C (based on mean relative volume of tumor) (Lung Adenocarcinoma; 5 × 30 mg/kg): 35% | T/C (based on mean relative volume of tumor) (Mammary Carcinoma; 5 × 30 mg/kg): 40% | T/C (Colon 38 Carcinoma; 1 × 120 mg/kg i.p.): 72% | T/C (Colon 38 Carcinoma; 3 × 100 mg/kg i.p.): 50% | ILS (increase in life span) (ascitic Sarcoma 180; 1 × 80 mg/kg): 95% | Survivors/Animals Treated (ascitic Sarcoma 180; 1 × 80 mg/kg): 1/5 | MST (mean survival time) (ascitic Sarcoma 180; 1 × 80 mg/kg): 32,2 (15-80) d | ILS (increase in life span) (ascitic Sarcoma 180; 1 × 120 mg/kg): 125% | Survivors/Animals Treated (ascitic Sarcoma 180; 1 × 120 mg/kg): 1/5 | MST (mean survival time) (ascitic Sarcoma 180; 1 × 120 mg/kg): 37,2 (21-80) d | T/C (based on mean relative volume of tumor) ([1]; 5 × 30 mg/kg): 65%

Titanocene dibromide [reference compound]
T/C (based on mean relative volume of tumor) (Rectum Adenocarcinoma; 5 × 20 mg/kg): 48% | T/C (B16 Melanoma; 1 × 60 mg/kg i.p.): 42% | T/C (B16 Melanoma; 3 × 50 mg/kg i.p.): 48% | T/C (B16 Melanoma; 3 × 60 mg/kg i.p.): 44% | T/C (solid Sarcoma 180; 1 × 50 mg/kg): 108% | Tumor Weight (solid Sarcoma 180; 1 × 50 mg/kg): 1,27 ± 0,37 g | T/C (solid Sarcoma 180; 1 × 60 mg/kg): 94% | Tumor Weight (solid Sarcoma 180; 1 × 60 mg/kg): 1,21 ± 0,37 g | T/C (solid Sarcoma 180; 3 × 50 mg/kg): 53% | Tumor Weight (solid Sarcoma 180; 3 × 50 mg/kg): 0,69 ± 0,17 g | Toxicity Deaths/Animals Treated (solid Sarcoma 180; 3 × 60 mg/kg): 1/5 | T/C (solid Sarcoma 180; 3 × 60 mg/kg): 37% | Tumor Weight (solid Sarcoma 180; 3 × 60 mg/kg): 0,48 ± 0,10 g | T/C (based on mean relative volume of tumor) (Lung Adenocarcinoma; 5 × 20 mg/kg): 53% | T/C (based on mean relative volume of tumor) (Mammary Carcinoma; 5 × 20 mg/kg): 44% | T/C (Colon 38 Carcinoma; 1 × 60 mg/kg i.p.): 36% | T/C (Colon 38 Carcinoma; 3 × 50 mg/kg i.p.): 51% | ILS (increase in life span) (ascitic Sarcoma 180; 1 × 50 mg/kg, group of 5): 61% | MST (mean survival time) (ascitic Sarcoma 180; 1 × 50 mg/kg, group of 5): 28,4 (22-34) d | ILS (increase in life span) (ascitic Sarcoma 180; 1 × 60 mg/kg): 128% | Survivors/Animals Treated (ascitic Sarcoma 180; 1 × 60 mg/kg): 1/5 | MST (mean survival time) (ascitic Sarcoma 180; 1 × 60 mg/kg): 40,2 (20-80) d | T/C (based on mean relative volume of tumor) ([1]; 5 × 20 mg/kg): 96%

titanocene dichloride [reference compound]
T/C (based on mean relative volume of tumor) (Rectum Adenocarcinoma; 5 × 15 mg/kg): 38% | Optimal Treating Rate (Ehrlich ascites tumor): 90-100% | Therapeutic Index (LD50/ED90) (Ehrlich ascites tumor): 3,3 | T/C (B16 Melanoma; 1 × 50 mg/kg i.p.): 61% | T/C (B16 Melanoma; 3 × 40 mg/kg i.p.): 69% | T/C (B16 Melanoma; 3 × 50 mg/kg i.p.): 37% | T/C (solid Sarcoma 180; 1 × 40 mg/kg): 111% | Tumor Weight (solid Sarcoma 180; 1 × 40 mg/kg): 1,31 ± 0,24 g | T/C (solid Sarcoma 180; 1 × 50 mg/kg): 66% | Tumor Weight (solid Sarcoma 180; 1 × 50 mg/kg): 0,78 ± 0,34 g | T/C (solid Sarcoma 180; 3 × 40 mg/kg): 58% | Tumor Weight (solid Sarcoma 180; 3 × 40 mg/kg): 0,75 ± 0,32 g | T/C (solid Sarcoma 180; 3 × 50 mg/kg): 23% | Tumor Weight (solid Sarcoma 180; 3 × 50 mg/kg): 0,29 ± 0,14 g | T/C (based on mean relative volume of tumor) (Lung Adenocarcinoma; 5 × 15 mg/kg): 34% | T/C (based on mean relative volume of tumor) (Mammary Carcinoma; 5 × 15 mg/kg): 49% | T/C (Colon 38 Carcinoma; 1 × 50 mg/kg i.p.): 41% | T/C (Colon 38 Carcinoma; 3 × 40 mg/kg i.p.): 28% | ILS (increase in life span) (ascitic Sarcoma 180; 1 × 40 mg/kg, group of 5): 81% | Survivors/Animals Treated (ascitic Sarcoma 180; 1 × 40 mg/kg, group of 5): 1/5 | MST (mean survival time) (ascitic Sarcoma 180; 1 × 40 mg/kg, group of 5): 32,0 (18-80) d | ILS (increase in life span) (ascitic Sarcoma 180; 1 × 40 mg/kg, group of 6): 32% | MST (mean survival time) (ascitic Sarcoma 180; 1 × 40 mg/kg, group of 6): 27,3 (20-49) d | ILS (increase in life span) (ascitic Sarcoma 180; 1 × 50 mg/kg, group of 5): 184% | Survivors/Animals Treated (ascitic Sarcoma 180; 1 × 50 mg/kg, group of 5): 2/5 | MST (mean survival time) (ascitic Sarcoma 180; 1 × 50 mg/kg, group of 5): 50,0 (25-80) d | ILS (increase in life span) (ascitic Sarcoma 180; 1 × 50 mg/kg, group of 6): 161% | Survivors/Animals Treated (ascitic Sarcoma 180; 1 × 50 mg/kg, group of 6): 3/6 | MST (mean survival time) (ascitic Sarcoma 180; 1 × 50 mg/kg, group of 6): 54,0 (25-80) d | T/C (based on mean relative volume of tumor) ([1]; 5 × 15 mg/kg): 110%

From patent US5002969A, “Pharmaceutical compositions containing titanocene complexes and use of these complexes as cytostatic agents” (priority 1985, dated 1991)
